Measurements published in patent publication US11932606B2, “Anti-cancer/anti-fibrosis compounds” (THE REGENTS OF THE UNIVERSITY OF CALIFORNIA, priority 2017, dated 2024).

What was measured:
MV-4-11 cancer cell line = assay: Western blot of treated cells; type: cell-based
Description: For cell lines: All cells were plated (6-well) at 5×10^5 cells per well with medium containing 1% FBS overnight. And then Compound 29 was added in different concentrations with medium containing 1% FBS. After 16 hours, cells were lysed in M-per Mammalian Protein Extraction Reagent (78501, Thermo Fisher Scientific) containing protease and phosphatase inhibitors (88669, Thermo Fisher Pierce). Total protein concentration was measured using the Pierce BCA protein Assay Kit (#23227).
(§1) Proteins were separated on SDS-PAGE and transferred to nitrocellulose membrane. Immunoblotting were performed using specific antibodies: phosphor-Stat1-pS727 (8826, Cell signaling), total-Stat1 (14994, Cell signaling), Phospho-Stat3 (Tyr705) (9131, Cell signaling), Stat3 (9139, Cell signaling), pSTAT5-pS726 (ab128896, abcam), stat5 (94205, cell signaling), YAP (14074, Cell signaling), CYR61(14479, Cell signaling), CTGF (ab6992, Abcam), c-Myc (13987, Cell signaling), Mcl-1 (94296, Cell signaling) and GAPDH (AM4300, Invitrogen). (FIG. 1A, FIG. 1B, FIG. 1C). MV-4-11 cancer cell line was treated with compound 29 at various concentrations (30 nM up to 10 μM) for 24 hours and 48 hours, respectively.

MOLM-14 xenograft tumors = assay: Western analysis / pharmacodynamics of MOLM-14 xenograft tumors; type: in vivo, mouse
Description: For tissue: Tissue was homogenized and protein was extracted using T-per Mammalian protein extraction reagent (78510, Thermo Fisher Scientific). In the pharmacodynamics study, mice bearing tumors were treated with vehicle, 10 mg/kg, 50 mg/kg and 100 mg/kg for 6 hrs. After 6 hrs of treatment, tumors were removed for further procedure.
as §1
Tumors from the MOLM-14 xenograft study were collected and processed for western analysis. In the western results showing above, the level of p-STAT1 (Ser727) in the three mice samples from the treated group were much lower compared to that in the three mice samples from the control group.

[1] = tumors from MOLM-14 xenograft study, Western

With `Nc1nccc2c(Br)cc3cc(C(=O)[O-])ccc3c12.[Na+]` [Compound 29, Sodium 1-amino-5-bromobenzo[h]isoquinoline-8-carboxylate] the “level of p-STAT1(Ser727), p-STAT3(Tyr705), p-STAT5(Ser726)” value (MV-4-11 cancer cell line; MV-4-11, 30 nM up to 10 μM, 24 hours and 48 hours) was “dose-response down regulation”, the “level of YAP, CYR61, CTGF, C-MYC, and MCL-1” value (MV-4-11 cancer cell line; MV-4-11, 48 hours) was “down regulate” and the “p-STAT1 (Ser727) in tumors, pharmacodynamics study” value (MOLM-14 xenograft tumors; 10 mg/kg, 50 mg/kg and 100 mg/kg, 6 hrs) was “a dose response (10 mg/kg, 50 mg/kg and 100 mg/kg) of down regulation”. For the same molecule, the “level of p-STAT1 (Ser727) in tumors vs control group” value (MOLM-14 xenograft tumors; [1]) was “much lower” and the “level of p-STAT5(Ser726) in tumors vs control group” value (MOLM-14 xenograft tumors; [1]) was “lower level”.
